Measurements as given in ChEMBL document CHEMBL3627608, “Crystal structures of human RIP2 kinase catalytic domain complexed with ATP-competitive inhibitors: Foundations for understanding inhibitor selectivity” (Bioorg Med Chem, 2015).

Columns and labels:
[1] = target: T1, Serine/threonine-protein kinase 17A (Homo sapiens) (UniProt Q9UEE5); test: Inhibition of DRAK1 (unknown origin) at 10 uM after 120 mins P33 radiolabeled kinase activity assay
T1 sequence (whole entry): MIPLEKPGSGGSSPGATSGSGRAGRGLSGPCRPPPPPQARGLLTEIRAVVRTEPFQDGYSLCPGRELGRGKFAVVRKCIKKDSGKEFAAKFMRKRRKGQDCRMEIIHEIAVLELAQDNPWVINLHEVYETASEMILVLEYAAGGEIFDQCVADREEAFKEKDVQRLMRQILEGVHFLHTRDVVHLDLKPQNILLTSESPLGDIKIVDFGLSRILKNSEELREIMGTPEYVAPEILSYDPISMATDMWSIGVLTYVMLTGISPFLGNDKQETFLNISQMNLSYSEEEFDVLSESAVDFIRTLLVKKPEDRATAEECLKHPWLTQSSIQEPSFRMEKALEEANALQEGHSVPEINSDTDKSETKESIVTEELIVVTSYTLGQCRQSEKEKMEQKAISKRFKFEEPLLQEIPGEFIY

[2] = target: G protein-coupled receptor kinase 5 (Homo sapiens) (UniProt P34947); test: Inhibition of GRK5 (unknown origin) at 10 uM after 120 mins P33 radiolabeled kinase activity assay
[3] = target: Dual specificity protein kinase CLK3 (Homo sapiens) (UniProt P49761); test: Inhibition of CLK3 (unknown origin) at 10 uM after 120 mins P33 radiolabeled kinase activity assay
[4] = target: Calcium/calmodulin-dependent protein kinase type II subunit gamma (Homo sapiens) (UniProt Q13555); test: Inhibition of CAMK2gamma (unknown origin) at 10 uM after 120 mins P33 radiolabeled kinase activity assay
[5] = target: Calcium/calmodulin-dependent protein kinase type 1D (Homo sapiens) (UniProt Q8IU85); test: Inhibition of CAMK1delta (unknown origin) at 10 uM after 120 mins P33 radiolabeled kinase activity assay
[6] = target: Tyrosine-protein kinase Srms (Homo sapiens) (UniProt Q9H3Y6); test: Inhibition of SRMS (unknown origin) at 10 uM after 120 mins P33 radiolabeled kinase activity assay
[7] = target: T2, Tyrosine-protein kinase receptor TYRO3 (Homo sapiens) (UniProt Q06418); test: Inhibition of TYRO3 (unknown origin) at 10 uM after 120 mins P33 radiolabeled kinase activity assay
T2 sequence (whole entry): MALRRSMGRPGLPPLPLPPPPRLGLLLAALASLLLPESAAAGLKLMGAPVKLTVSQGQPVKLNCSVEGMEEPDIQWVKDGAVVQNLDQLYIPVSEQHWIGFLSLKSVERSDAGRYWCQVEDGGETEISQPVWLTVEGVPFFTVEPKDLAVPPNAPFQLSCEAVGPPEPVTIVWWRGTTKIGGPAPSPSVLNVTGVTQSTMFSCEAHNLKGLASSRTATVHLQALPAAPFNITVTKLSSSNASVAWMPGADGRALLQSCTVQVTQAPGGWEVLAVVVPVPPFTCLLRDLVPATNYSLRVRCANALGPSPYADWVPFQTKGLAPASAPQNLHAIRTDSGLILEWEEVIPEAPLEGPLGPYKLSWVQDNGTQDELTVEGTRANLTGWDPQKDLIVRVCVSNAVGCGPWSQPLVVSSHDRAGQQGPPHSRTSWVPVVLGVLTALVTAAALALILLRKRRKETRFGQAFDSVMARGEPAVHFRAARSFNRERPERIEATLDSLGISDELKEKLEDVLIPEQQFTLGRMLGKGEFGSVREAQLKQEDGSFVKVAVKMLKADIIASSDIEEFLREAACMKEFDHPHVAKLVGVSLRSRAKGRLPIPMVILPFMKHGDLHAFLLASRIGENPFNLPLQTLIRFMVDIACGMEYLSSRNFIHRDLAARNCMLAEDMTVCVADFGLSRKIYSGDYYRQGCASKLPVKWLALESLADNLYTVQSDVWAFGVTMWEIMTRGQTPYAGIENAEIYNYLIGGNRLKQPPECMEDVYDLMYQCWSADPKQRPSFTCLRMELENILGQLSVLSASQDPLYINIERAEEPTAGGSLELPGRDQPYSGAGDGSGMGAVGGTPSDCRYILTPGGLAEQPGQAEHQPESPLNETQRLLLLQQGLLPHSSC

[8] = target: T3, Protein kinase C zeta type (Homo sapiens) (UniProt Q05513); test: Inhibition of PKCzeta (unknown origin) at 10 uM after 120 mins P33 radiolabeled kinase activity assay
T3 sequence (whole entry): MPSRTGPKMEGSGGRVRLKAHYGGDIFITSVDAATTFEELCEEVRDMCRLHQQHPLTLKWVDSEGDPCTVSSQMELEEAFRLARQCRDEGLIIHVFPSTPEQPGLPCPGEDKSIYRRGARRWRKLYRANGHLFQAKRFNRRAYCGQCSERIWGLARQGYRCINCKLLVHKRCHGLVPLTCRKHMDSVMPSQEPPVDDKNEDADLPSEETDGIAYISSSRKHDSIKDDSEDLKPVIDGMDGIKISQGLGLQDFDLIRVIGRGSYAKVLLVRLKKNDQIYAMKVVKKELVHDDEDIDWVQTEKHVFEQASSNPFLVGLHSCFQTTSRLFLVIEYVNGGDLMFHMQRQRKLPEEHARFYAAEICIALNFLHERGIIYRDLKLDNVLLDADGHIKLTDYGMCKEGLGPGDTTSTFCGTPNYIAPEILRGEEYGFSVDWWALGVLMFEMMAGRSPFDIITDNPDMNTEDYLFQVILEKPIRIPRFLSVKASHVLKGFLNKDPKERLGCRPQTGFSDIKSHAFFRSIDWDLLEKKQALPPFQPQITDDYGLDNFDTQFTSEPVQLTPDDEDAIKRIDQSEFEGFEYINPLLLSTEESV

[9] = target: T4, Serine/threonine-protein kinase Nek3 (Homo sapiens) (UniProt P51956); test: Inhibition of NEK3 (unknown origin) at 10 uM after 120 mins P33 radiolabeled kinase activity assay
T4 sequence (whole entry): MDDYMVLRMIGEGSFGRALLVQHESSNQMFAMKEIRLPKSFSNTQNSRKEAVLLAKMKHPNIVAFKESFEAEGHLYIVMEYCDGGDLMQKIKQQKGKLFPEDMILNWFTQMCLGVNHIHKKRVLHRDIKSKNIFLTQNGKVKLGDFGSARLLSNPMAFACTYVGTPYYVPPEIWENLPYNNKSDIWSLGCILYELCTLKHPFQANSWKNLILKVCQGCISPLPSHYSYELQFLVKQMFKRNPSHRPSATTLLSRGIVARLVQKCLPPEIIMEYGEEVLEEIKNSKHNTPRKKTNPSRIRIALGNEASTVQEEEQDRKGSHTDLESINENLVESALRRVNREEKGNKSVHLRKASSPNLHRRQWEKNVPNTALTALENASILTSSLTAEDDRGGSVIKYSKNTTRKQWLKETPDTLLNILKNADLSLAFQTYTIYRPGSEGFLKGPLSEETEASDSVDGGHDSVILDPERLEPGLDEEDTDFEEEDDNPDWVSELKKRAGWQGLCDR

[10] = target: cAMP-dependent protein kinase catalytic subunit beta (Homo sapiens) (UniProt P22694); test: Inhibition of PKAcbeta (unknown origin) at 10 uM after 120 mins P33 radiolabeled kinase activity assay

G protein-coupled receptor kinase 5 (Homo sapiens), sequence (P34947 whole entry, looked up): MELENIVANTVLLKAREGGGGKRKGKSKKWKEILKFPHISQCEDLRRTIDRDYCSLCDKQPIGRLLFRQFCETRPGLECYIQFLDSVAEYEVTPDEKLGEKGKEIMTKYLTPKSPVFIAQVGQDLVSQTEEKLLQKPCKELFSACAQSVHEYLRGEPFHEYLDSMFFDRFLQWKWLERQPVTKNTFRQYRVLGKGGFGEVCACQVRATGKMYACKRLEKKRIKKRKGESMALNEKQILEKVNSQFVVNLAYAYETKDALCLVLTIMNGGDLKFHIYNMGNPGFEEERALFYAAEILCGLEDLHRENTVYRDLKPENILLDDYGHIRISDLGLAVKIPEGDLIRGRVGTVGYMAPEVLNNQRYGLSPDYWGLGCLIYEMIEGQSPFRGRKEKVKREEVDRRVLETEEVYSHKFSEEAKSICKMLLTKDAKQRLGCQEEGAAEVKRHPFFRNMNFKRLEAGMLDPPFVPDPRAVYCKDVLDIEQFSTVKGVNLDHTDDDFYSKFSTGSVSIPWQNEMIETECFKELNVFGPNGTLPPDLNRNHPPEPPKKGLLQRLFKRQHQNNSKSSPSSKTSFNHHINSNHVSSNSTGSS
Calcium/calmodulin-dependent protein kinase type II subunit gamma (Homo sapiens), sequence (Q13555 whole entry): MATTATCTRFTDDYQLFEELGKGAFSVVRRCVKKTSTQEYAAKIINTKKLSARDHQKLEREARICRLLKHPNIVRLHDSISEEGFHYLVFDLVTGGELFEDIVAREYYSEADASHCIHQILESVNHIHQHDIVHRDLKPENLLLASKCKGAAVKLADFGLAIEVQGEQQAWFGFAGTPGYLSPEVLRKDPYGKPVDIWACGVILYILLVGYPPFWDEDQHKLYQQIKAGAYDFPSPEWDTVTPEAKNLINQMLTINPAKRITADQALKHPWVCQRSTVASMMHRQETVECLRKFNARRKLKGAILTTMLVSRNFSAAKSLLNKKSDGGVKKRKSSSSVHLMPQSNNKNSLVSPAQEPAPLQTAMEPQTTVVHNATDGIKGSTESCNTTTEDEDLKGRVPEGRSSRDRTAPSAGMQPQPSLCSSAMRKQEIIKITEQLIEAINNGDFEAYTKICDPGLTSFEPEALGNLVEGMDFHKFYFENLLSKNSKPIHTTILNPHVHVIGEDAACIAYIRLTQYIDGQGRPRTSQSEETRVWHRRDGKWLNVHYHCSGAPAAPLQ
Tyrosine-protein kinase Srms (Homo sapiens), sequence (Q9H3Y6 whole entry): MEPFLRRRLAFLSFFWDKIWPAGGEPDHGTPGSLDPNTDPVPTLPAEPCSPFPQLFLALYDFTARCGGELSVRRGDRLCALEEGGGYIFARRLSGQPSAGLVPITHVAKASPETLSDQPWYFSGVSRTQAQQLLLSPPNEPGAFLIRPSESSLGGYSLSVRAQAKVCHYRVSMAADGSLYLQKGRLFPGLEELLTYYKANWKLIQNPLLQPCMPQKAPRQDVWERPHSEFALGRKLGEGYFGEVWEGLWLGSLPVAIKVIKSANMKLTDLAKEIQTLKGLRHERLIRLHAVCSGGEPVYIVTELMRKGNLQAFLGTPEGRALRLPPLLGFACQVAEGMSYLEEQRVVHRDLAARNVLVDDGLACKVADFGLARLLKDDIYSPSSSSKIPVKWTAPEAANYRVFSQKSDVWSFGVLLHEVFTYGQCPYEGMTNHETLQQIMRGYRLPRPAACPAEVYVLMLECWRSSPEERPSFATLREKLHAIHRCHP
Calcium/calmodulin-dependent protein kinase type 1D (Homo sapiens), sequence (Q8IU85 whole entry, looked up): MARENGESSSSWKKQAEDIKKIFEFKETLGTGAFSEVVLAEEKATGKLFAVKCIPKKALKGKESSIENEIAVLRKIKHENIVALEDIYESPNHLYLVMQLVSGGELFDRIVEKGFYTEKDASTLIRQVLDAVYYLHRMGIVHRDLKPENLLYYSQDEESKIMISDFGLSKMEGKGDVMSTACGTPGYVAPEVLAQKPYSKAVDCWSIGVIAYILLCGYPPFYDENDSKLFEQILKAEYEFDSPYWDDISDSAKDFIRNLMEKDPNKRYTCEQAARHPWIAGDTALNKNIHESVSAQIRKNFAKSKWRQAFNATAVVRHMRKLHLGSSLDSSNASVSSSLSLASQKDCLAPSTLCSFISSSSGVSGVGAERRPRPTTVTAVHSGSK
Dual specificity protein kinase CLK3 (Homo sapiens), sequence (P49761 whole entry, looked up): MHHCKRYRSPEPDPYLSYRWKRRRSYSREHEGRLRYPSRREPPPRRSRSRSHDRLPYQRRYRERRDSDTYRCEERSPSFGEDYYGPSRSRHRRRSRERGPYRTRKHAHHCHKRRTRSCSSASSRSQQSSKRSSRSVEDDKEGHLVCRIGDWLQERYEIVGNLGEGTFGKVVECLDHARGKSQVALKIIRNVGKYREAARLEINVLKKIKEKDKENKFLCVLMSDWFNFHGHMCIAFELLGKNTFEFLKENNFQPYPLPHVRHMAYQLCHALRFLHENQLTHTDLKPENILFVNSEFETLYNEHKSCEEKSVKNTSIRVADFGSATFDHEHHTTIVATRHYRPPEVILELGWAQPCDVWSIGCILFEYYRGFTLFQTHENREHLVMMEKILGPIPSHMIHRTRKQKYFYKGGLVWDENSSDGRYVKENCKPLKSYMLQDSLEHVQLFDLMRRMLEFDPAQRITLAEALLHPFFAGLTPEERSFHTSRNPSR

| Structure (SMILES) | inhibition [1] [%] | inhibition [2] [%] | inhibition [3] [%] | inhibition [4] [%] | inhibition [5] [%] | inhibition [6] [%] | inhibition [7] [%] | inhibition [8] [%] | inhibition [9] [%] | inhibition [10] [%] |
| --- | --- | --- | --- | --- | --- | --- | --- | --- | --- | --- |
| CS(=O)(=O)c1cccc(Nc2nccc(-c3sc(N4CCOCC4)nc3-c3cccc(NS(=O)(=O)c4c(F)cccc4F)c3)n2)c1 | 1.47 | -3.67 | 36.7 | 7.84 | 76.3 | 98.4 | 79.5 | 7.55 | 4.28 | -0.07 |
| COCCNC(=O)c1ccc2c(c1)nc(-c1cnc(-c3ccc(Cl)cc3)[nH]1)n2CCOC | 5.43 | -6.1 | 5.68 | 9.22 | 3.59 | 4.18 | 12.8 | 3.68 | 16.4 | -0.18 |
| CC(C)(C)c1cc(NC(=O)Nc2ccc(Oc3ccncc3)cc2)no1 | 8.49 | -7.31 | 9.12 | 3.21 | 8.06 | -2.8 | 60.7 | 5.44 | 10.7 | 55.2 |
